Data reported in ChEMBL document CHEMBL1201862, “PubChem BioAssay data set” (2004).
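Each compound was tested at five concentrations against cells in 96-well plates for 48 hours. The concentration for 50% growth inhibition is given as GI50.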 The source made the active and inactive calls. Rule as the data show it: active = GI50 up to about 1.1 µM and inactive = higher.

What was measured:
Assay in all cases: growth of human tumour cells (NCI), 48 h
[1] = test system: HOP-62
[2] = test system: TK-10
[3] = test system: KM12
[4] = test system: ACHN
[5] = test system: M19-MEL
[6] = test system: HT-29
[7] = test system: RXF 393
[8] = test system: IGROV-1
[9] = test system: SF-539
[10] = test system: HCC 2998
[11] = test system: SF-268
[12] = test system: OVCAR-5
[13] = test system: SW-620
[14] = test system: COLO 205
[15] = test system: DMS-273
[16] = test system: UACC-257
[17] = test system: OVCAR-3
[18] = test system: K562
[19] = test system: A549

Measured: GI50

COc1ccc2[nH]cc(CCNC(=O)[C@](O)(Cc3cn(C)c4ccccc34)[C@@]3(O)OCC(O)C3O)c2c1 (some centres not stated)
inactive: [1] > 100 µM | [2] > 100 µM | [3] > 100 µM | [4] > 100 µM | [5] > 100 µM | [6] > 100 µM | [7] > 100 µM | [8] > 100 µM | [9] 40.4 µM | [10] > 100 µM | [11] 82.6 µM | [12] > 100 µM | [13] > 100 µM | [14] > 100 µM | [15] > 100 µM | [16] > 100 µM | [17] > 100 µM | [18] 74 µM | [19] > 100 µM

Oc1ccc2c(c1)OCC1(O)Cc3cc(O)c(O)cc3C21 (configuration not stated)
inactive: [1] > 58.1 µM | [2] 17.4 µM | [3] 32.7 µM | [4] 18.2 µM | [5] 29.1 µM | [6] 21.3 µM | [7] 15.9 µM | [8] 39.6 µM | [9] 17 µM | [10] 21.2 µM | [11] 27.1 µM | [12] 22.5 µM | [13] 18.6 µM | [14] 16.8 µM | [15] 35.8 µM | [16] 19.9 µM | [17] 16.2 µM | [18] 27.7 µM | [19] > 57.7 µM

COc1cc2c(c(O)c1O)-c1ccc(OC)c(=O)cc1C(NC(C)=O)CC2 (configuration not stated)
inactive: [1] 20.5 µM | [2] 64.3 µM | [3] 3.13 µM | [4] 74.6 µM | [5] 6.98 µM | [6] 3.91 µM | [7] 14.6 µM | [8] 32.1 µM | [9] 3.2 µM | [10] 8.05 µM | [11] 5.75 µM | [12] 76.6 µM | [13] 5.27 µM | [14] 3.87 µM | [15] 5.07 µM | [16] 30.1 µM | [17] 2.4 µM | [18] 3.64 µM | [19] 36.4 µM

CC[C@H]1CC(=O)c2c(cc3c(c2O)C(=O)c2ccccc2C3=O)[C@@]1(C#N)C(=O)OC(C)(C)C
inactive: [1] 1.77 µM | [2] 4.78 µM | [3] 2.62 µM | [4] 3.31 µM | [5] 3.7 µM | [6] 3.37 µM | [7] 5.2 µM | [8] 2.4 µM | [9] 4.13 µM | [10] 5.47 µM | [11] 5.36 µM | [12] 10.3 µM | [13] 3.65 µM | [14] 1.96 µM | [15] 2.42 µM | [16] 2.07 µM | [17] 2.81 µM | [19] 3.27 µM

O=C1CC[C@H](NC(=O)Cc2ccccc2)C(=O)N1 [ANTINEOPLASTON A10]
inactive: [1] > 1250 µM | [2] > 1250 µM | [3] > 1250 µM | [4] > 1250 µM | [5] > 1250 µM | [6] > 1250 µM | [7] > 1250 µM | [8] > 1250 µM | [9] > 1250 µM | [10] > 1250 µM | [11] > 1250 µM | [12] > 1250 µM | [13] > 1250 µM | [14] > 1250 µM | [15] > 1250 µM | [16] > 1250 µM | [18] > 1250 µM | [19] > 1250 µM

COc1ccc(C(=O)C(c2ccc(OCc3ccccc3)cc2)c2ccc(OCc3ccccc3)cc2)cc1
inactive: [1] > 100 µM | [2] > 100 µM | [3] > 100 µM | [4] > 100 µM | [5] > 100 µM | [6] > 100 µM | [7] > 100 µM | [8] > 100 µM | [9] > 100 µM | [10] > 100 µM | [11] > 100 µM | [12] > 100 µM | [13] > 100 µM | [14] > 100 µM | [15] > 100 µM | [17] > 100 µM | [18] > 100 µM | [19] > 100 µM

C=CCC12CCC(=O)[C@@]1(C)CC=C(O)C2=O (some centres not stated)
inactive: [1] > 100 µM | [2] > 100 µM | [3] > 100 µM | [4] > 100 µM | [5] > 100 µM | [6] > 100 µM | [7] > 100 µM | [8] > 100 µM | [9] > 100 µM | [10] > 100 µM | [11] > 100 µM | [12] > 100 µM | [13] > 100 µM | [14] > 100 µM | [15] > 100 µM | [16] > 100 µM | [17] > 100 µM | [19] > 100 µM

COc1ccc2c(c1)O[C@@H]1c3ccc(OC)cc3OC[C@H]21
inactive: [1] 72.8 µM | [2] 35.6 µM | [3] 28.4 µM | [4] 52.4 µM | [5] 31.4 µM | [6] > 10 µM | [7] 22.4 µM | [8] 37 µM | [9] 38.1 µM | [10] 35.2 µM | [11] 38.2 µM | [12] 45.3 µM | [13] 20.8 µM | [15] 14.1 µM | [16] > 10 µM | [17] 34 µM | [18] 6.11 µM | [19] 29.2 µM
